Assay results published in patent US20250230193A1, “CYCLIC COMPOUND HAVING SELECTIVE KRAS INHIBITORY EFFECT ON HRAS AND NRAS” (CHUGAI SEIYAKU KABUSHIKI KAISHA, priority 2022, published 2025).
Where a SMILES comes first, the peptide text is derived from it. Bridges are numbered along the chain shown (N, C = ends). [ ]: non-standard residue; d: D form. The star is where a group is joined. hPhe(3-Cl-4-CF3) = N[C@@H](CCc1ccc(C(F)(F)F)c(Cl)c1)C(=O)O; NPrPhe(4-CF3) = CCCN[C@@H](Cc1ccc(C(F)(F)F)cc1)C(=O)O; NMeGly(cPent) = CN[C@H](C(=O)O)C1CCCC1; Pro(4,4-F2) = O=C(O)[C@@H]1CC(F)(F)CN1; Hyp = O=C(O)[C@@H]1C[C@@H](O)CN1; NMeL = CN[C@@H](CC(C)C)C(=O)O; Morpholide = C1CN(*)CCO1; Ac5c = NC1(C(=O)O)CCCC1; Aze = O=C(O)[C@@H]1CCN1; Ac4c = NC1(C(=O)O)CCC1; NEtG = CCNCC(=O)O; Sar = CNCC(=O)O

Legend:
[1] = molecular target: GDP-bound NRAS wild-type protein (Homo sapiens, UniProt P01111); experiment: Binding to NRAS by surface plasmon resonance (SPR), Single Cycle Kinetics; settings: KD ratio NRAS/KRAS, SPR
Chain of GDP-bound NRAS wild-type protein (P01111 whole entry): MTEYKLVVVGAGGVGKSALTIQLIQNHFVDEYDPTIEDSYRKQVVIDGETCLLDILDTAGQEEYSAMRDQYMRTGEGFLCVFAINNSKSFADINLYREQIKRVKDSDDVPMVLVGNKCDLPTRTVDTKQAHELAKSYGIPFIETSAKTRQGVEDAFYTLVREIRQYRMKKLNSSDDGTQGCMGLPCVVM

[2] = molecular target: GDP-bound HRAS wild-type protein (Homo sapiens, UniProt P01112); experiment: Binding to HRAS by surface plasmon resonance (SPR), Single Cycle Kinetics; settings: KD ratio HRAS/KRAS, SPR
Chain of GDP-bound HRAS wild-type protein (P01112 whole entry): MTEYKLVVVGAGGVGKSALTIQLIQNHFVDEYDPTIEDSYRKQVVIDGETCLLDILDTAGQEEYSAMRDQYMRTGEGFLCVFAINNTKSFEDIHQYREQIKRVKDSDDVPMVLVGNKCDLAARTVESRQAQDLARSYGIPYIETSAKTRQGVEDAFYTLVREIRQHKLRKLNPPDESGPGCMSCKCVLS

| Compound | NRAS/KRAS (ratio of KD for GDP-bound NRAS wild-type to KD for KRAS) [1] | HRAS/KRAS (ratio of KD for GDP-bound HRAS wild-type to KD for KRAS) [2] |
| --- | --- | --- |
| CCCN1C(=O)CN(C)C(=O)CNC(=O)[C@H]([C@@H](C)CC)NC(=O)[C@H](CC(C)C)N(C)C(=O)C[C@@H](C(=O)N2CCOCC2)NC(=O)[C@H](C2CCCC2)N(C)C(=O)C2(CCCC2)NC(=O)[C@@H]2C[C@@H](OCC)CN2C(=O)[C@H](CCc2ccc(C(F)(F)F)c(Cl)c2)NC(=O)CN(C)C(=O)[C@@H]1Cc1ccc(C(F)(F)F)cc1 [PP0329] ([NMeL]IG[Sar][NPrPhe(4-CF3)][Sar][hPhe(3-Cl-4-CF3)][Hyp](Et)[Ac5c][NMeGly(cPent)]D-Morpholide; lactam N-11) | B (a compound having 3 or more and less than 10 is denoted as B) | C (A compound having a KD ratio of 0.1 or more and less than 3 is denoted as C) |
| CCCN1C(=O)CN(C)C(=O)CNC(=O)[C@H]([C@@H](C)CC)NC(=O)[C@H](CC(C)C)N(C)C(=O)C[C@@H](C(=O)N2CCOCC2)NC(=O)[C@H](C2CCCC2)N(C)C(=O)C2(CCC2)NC(=O)[C@@H]2C[C@@H](OCC)CN2C(=O)[C@H](CCc2ccc(C(F)(F)F)c(Cl)c2)NC(=O)CN(C)C(=O)[C@@H]1Cc1ccc(C(F)(F)F)cc1 [PP0330] ([NMeL]IG[Sar][NPrPhe(4-CF3)][Sar][hPhe(3-Cl-4-CF3)][Hyp](Et)[Ac4c][NMeGly(cPent)]D-Morpholide; lactam N-11) | B (a compound having 3 or more and less than 10 is denoted as B) | C (A compound having a KD ratio of 0.1 or more and less than 3 is denoted as C) |
| CCCN1C(=O)CN(C)C(=O)CN(CC)C(=O)[C@H]([C@@H](C)CC)NC(=O)[C@H](CC(C)C)N(C)C(=O)C[C@@H](C(=O)N2CCOCC2)NC(=O)[C@H](C2CCCC2)N(C)C(=O)C2(CCCC2)NC(=O)[C@@H]2CCCN2C(=O)[C@H](CCc2ccc(C(F)(F)F)c(Cl)c2)NC(=O)CN(C)C(=O)[C@@H]1Cc1ccc(C(F)(F)F)cc1 [PP0331] ([NMeL]I[NEtG][Sar][NPrPhe(4-CF3)][Sar][hPhe(3-Cl-4-CF3)]P[Ac5c][NMeGly(cPent)]D-Morpholide; lactam N-11) | B (a compound having 3 or more and less than 10 is denoted as B) | B (a compound having 3 or more and less than 10 is denoted as B) |
| CCCN1C(=O)CN(C)C(=O)CN(CC)C(=O)[C@H]([C@@H](C)CC)NC(=O)[C@H](CC(C)C)N(C)C(=O)C[C@@H](C(=O)N2CCOCC2)NC(=O)[C@H](C2CCCC2)N(C)C(=O)C2(CCC2)NC(=O)[C@@H]2CCCN2C(=O)[C@H](CCc2ccc(C(F)(F)F)c(Cl)c2)NC(=O)CN(C)C(=O)[C@@H]1Cc1ccc(C(F)(F)F)cc1 [PP0332] ([NMeL]I[NEtG][Sar][NPrPhe(4-CF3)][Sar][hPhe(3-Cl-4-CF3)]P[Ac4c][NMeGly(cPent)]D-Morpholide; lactam N-11) | B (a compound having 3 or more and less than 10 is denoted as B) | B (a compound having 3 or more and less than 10 is denoted as B) |
| CCCN1C(=O)CN(C)C(=O)CN(CC)C(=O)[C@H]([C@@H](C)CC)NC(=O)[C@H](CC(C)C)N(C)C(=O)C[C@@H](C(=O)N2CCOCC2)NC(=O)[C@H](C2CCCC2)N(C)C(=O)C2(CCCC2)NC(=O)[C@@H]2CC(F)(F)CN2C(=O)[C@H](CCc2ccc(C(F)(F)F)c(Cl)c2)NC(=O)CN(C)C(=O)[C@@H]1Cc1ccc(C(F)(F)F)cc1 [PP0333] ([NMeL]I[NEtG][Sar][NPrPhe(4-CF3)][Sar][hPhe(3-Cl-4-CF3)][Pro(4,4-F2)][Ac5c][NMeGly(cPent)]D-Morpholide; lactam N-11) | B (a compound having 3 or more and less than 10 is denoted as B) | C (A compound having a KD ratio of 0.1 or more and less than 3 is denoted as C) |
| CCCN1C(=O)CN(C)C(=O)CN(CC)C(=O)[C@H]([C@@H](C)CC)NC(=O)[C@H](CC(C)C)N(C)C(=O)C[C@@H](C(=O)N2CCOCC2)NC(=O)[C@H](C2CCCC2)N(C)C(=O)C2(CCC2)NC(=O)[C@@H]2CC(F)(F)CN2C(=O)[C@H](CCc2ccc(C(F)(F)F)c(Cl)c2)NC(=O)CN(C)C(=O)[C@@H]1Cc1ccc(C(F)(F)F)cc1 [PP0334] ([NMeL]I[NEtG][Sar][NPrPhe(4-CF3)][Sar][hPhe(3-Cl-4-CF3)][Pro(4,4-F2)][Ac4c][NMeGly(cPent)]D-Morpholide; lactam N-11) | B (a compound having 3 or more and less than 10 is denoted as B) | C (A compound having a KD ratio of 0.1 or more and less than 3 is denoted as C) |
| CCCN1C(=O)CN(C)C(=O)CN(CC)C(=O)[C@H]([C@@H](C)CC)NC(=O)[C@H](CC(C)C)N(C)C(=O)C[C@@H](C(=O)N2CCOCC2)NC(=O)[C@H](C2CCCC2)N(C)C(=O)C2(CCCC2)NC(=O)[C@@H]2C[C@@H](OCC)CN2C(=O)[C@H](CCc2ccc(C(F)(F)F)c(Cl)c2)NC(=O)CN(C)C(=O)[C@@H]1Cc1ccc(C(F)(F)F)cc1 [PP0335] ([NMeL]I[NEtG][Sar][NPrPhe(4-CF3)][Sar][hPhe(3-Cl-4-CF3)][Hyp](Et)[Ac5c][NMeGly(cPent)]D-Morpholide; lactam N-11) | B (a compound having 3 or more and less than 10 is denoted as B) | C (A compound having a KD ratio of 0.1 or more and less than 3 is denoted as C) |
| CCCN1C(=O)CN(C)C(=O)CN(CC)C(=O)[C@H]([C@@H](C)CC)NC(=O)[C@H](CC(C)C)N(C)C(=O)C[C@@H](C(=O)N2CCOCC2)NC(=O)[C@H](C2CCCC2)N(C)C(=O)C2(CCC2)NC(=O)[C@@H]2C[C@@H](OCC)CN2C(=O)[C@H](CCc2ccc(C(F)(F)F)c(Cl)c2)NC(=O)CN(C)C(=O)[C@@H]1Cc1ccc(C(F)(F)F)cc1 [PP0336] ([NMeL]I[NEtG][Sar][NPrPhe(4-CF3)][Sar][hPhe(3-Cl-4-CF3)][Hyp](Et)[Ac4c][NMeGly(cPent)]D-Morpholide; lactam N-11) | B (a compound having 3 or more and less than 10 is denoted as B) | B (a compound having 3 or more and less than 10 is denoted as B) |
| CCCN1C(=O)CN(C)C(=O)[C@@H]2CCN2C(=O)[C@H]([C@@H](C)CC)NC(=O)[C@H](CC(C)C)N(C)C(=O)C[C@@H](C(=O)N2CCOCC2)NC(=O)[C@H](C2CCCC2)N(C)C(=O)C2(CCCC2)NC(=O)[C@@H]2CCCN2C(=O)[C@H](CCc2ccc(C(F)(F)F)c(Cl)c2)NC(=O)CN(C)C(=O)[C@@H]1Cc1ccc(C(F)(F)F)cc1 [PP0337] ([NMeL]I[Aze][Sar][NPrPhe(4-CF3)][Sar][hPhe(3-Cl-4-CF3)]P[Ac5c][NMeGly(cPent)]D-Morpholide; lactam N-11) | B (a compound having 3 or more and less than 10 is denoted as B) | B (a compound having 3 or more and less than 10 is denoted as B) |
| CCCN1C(=O)CN(C)C(=O)[C@@H]2CCN2C(=O)[C@H]([C@@H](C)CC)NC(=O)[C@H](CC(C)C)N(C)C(=O)C[C@@H](C(=O)N2CCOCC2)NC(=O)[C@H](C2CCCC2)N(C)C(=O)C2(CCC2)NC(=O)[C@@H]2CCCN2C(=O)[C@H](CCc2ccc(C(F)(F)F)c(Cl)c2)NC(=O)CN(C)C(=O)[C@@H]1Cc1ccc(C(F)(F)F)cc1 [PP0338] ([NMeL]I[Aze][Sar][NPrPhe(4-CF3)][Sar][hPhe(3-Cl-4-CF3)]P[Ac4c][NMeGly(cPent)]D-Morpholide; lactam N-11) | B (a compound having 3 or more and less than 10 is denoted as B) | B (a compound having 3 or more and less than 10 is denoted as B) |
| CCCN1C(=O)CN(C)C(=O)[C@@H]2CCN2C(=O)[C@H]([C@@H](C)CC)NC(=O)[C@H](CC(C)C)N(C)C(=O)C[C@@H](C(=O)N2CCOCC2)NC(=O)[C@H](C2CCCC2)N(C)C(=O)C2(CCCC2)NC(=O)[C@@H]2CC(F)(F)CN2C(=O)[C@H](CCc2ccc(C(F)(F)F)c(Cl)c2)NC(=O)CN(C)C(=O)[C@@H]1Cc1ccc(C(F)(F)F)cc1 [PP0339] ([NMeL]I[Aze][Sar][NPrPhe(4-CF3)][Sar][hPhe(3-Cl-4-CF3)][Pro(4,4-F2)][Ac5c][NMeGly(cPent)]D-Morpholide; lactam N-11) | B (a compound having 3 or more and less than 10 is denoted as B) | B (a compound having 3 or more and less than 10 is denoted as B) |
| CCCN1C(=O)CN(C)C(=O)[C@@H]2CCN2C(=O)[C@H]([C@@H](C)CC)NC(=O)[C@H](CC(C)C)N(C)C(=O)C[C@@H](C(=O)N2CCOCC2)NC(=O)[C@H](C2CCCC2)N(C)C(=O)C2(CCC2)NC(=O)[C@@H]2CC(F)(F)CN2C(=O)[C@H](CCc2ccc(C(F)(F)F)c(Cl)c2)NC(=O)CN(C)C(=O)[C@@H]1Cc1ccc(C(F)(F)F)cc1 [PP0340] ([NMeL]I[Aze][Sar][NPrPhe(4-CF3)][Sar][hPhe(3-Cl-4-CF3)][Pro(4,4-F2)][Ac4c][NMeGly(cPent)]D-Morpholide; lactam N-11) | B (a compound having 3 or more and less than 10 is denoted as B) | B (a compound having 3 or more and less than 10 is denoted as B) |
| CCCN1C(=O)CN(C)C(=O)[C@@H]2CCN2C(=O)[C@H]([C@@H](C)CC)NC(=O)[C@H](CC(C)C)N(C)C(=O)C[C@@H](C(=O)N2CCOCC2)NC(=O)[C@H](C2CCCC2)N(C)C(=O)C2(CCCC2)NC(=O)[C@@H]2C[C@@H](OCC)CN2C(=O)[C@H](CCc2ccc(C(F)(F)F)c(Cl)c2)NC(=O)CN(C)C(=O)[C@@H]1Cc1ccc(C(F)(F)F)cc1 [PP0341] ([NMeL]I[Aze][Sar][NPrPhe(4-CF3)][Sar][hPhe(3-Cl-4-CF3)][Hyp](Et)[Ac5c][NMeGly(cPent)]D-Morpholide; lactam N-11) | B (a compound having 3 or more and less than 10 is denoted as B) | B (a compound having 3 or more and less than 10 is denoted as B) |
